The values that follow come from ChEMBL document CHEMBL1944505, “Novel synthetic methods for N-cyano-1H-imidazole-4-carboxamides and their fungicidal activity” (Bioorg Med Chem Lett, 2012).

Molecules are shown by their SMILES. Converted amounts (≈) assume the structure as drawn. The source made the active and inactive calls. No cut-off for these calls is given here.

The test system of test [1] is Colletotrichum. Briefly: Antifungal activity against Colletotrichum gossypii at 50 ug/mL by agar plate method. The format is functional.
Test [2] relates to Rhizoctonia solani. Briefly: Antifungal activity against Rhizoctonia solani by agar plate method. The format is functional, organism-based.
Test [3] relates to Botrytis. Briefly: Antifungal activity against Botrytis […] at 50 ug/mL by agar plate method. The format is functional.
Test [4] is described as follows: Antifungal activity against Dothiorella gregaria at 50 ug/mL by agar plate method. The format is functional.
Test [5] has as its system Fusarium graminearum. Briefly: Antifungal activity against Gibberella zeae at 50 ug/mL by agar plate method. The format is functional, organism-based.
The test system of test [6] is Fusarium oxysporum. Briefly: Antifungal activity against Fusarium oxysporum at 50 ug/mL by agar plate method. The format is functional, organism-based.
Test [7] relates to Rhizoctonia solani. Briefly: Ratio of triadimefon EC50 to compound EC50 for Rhizoctonia solani. The format is functional.

For orientation: EC50 means the concentration giving half of the maximal effect. Consider `CCCCn1cnc(C(=O)N(C#N)Cc2ccccc2)c1C`, for which the result in test [1], in test [3], in test [4], in test [5] and in test [6] was inactive. This molecule registered an EC50 in test [2] of 7.98 µg/mL (≈ 26.9 µM).

In the case of `Cc1ccc(CN(C#N)C(=O)c2ncn(Cc3ccc(C)cc3)c2C)cc1`, the result in test [1], in test [3], in test [4], in test [5] and in test [6] was inactive. The same molecule returned an EC50 in test [2] of 15.8 µg/mL (≈ 44.1 µM).

On to `Cc1c(C(=O)N(C#N)Cc2ccc(F)cc2)ncn1Cc1cccc([N+](=O)[O-])c1`, for which the outcome in test [1], in test [3], in test [4], in test [5] and in test [6] was inactive. Moreover, the EC50 in test [2] amounted to 3.61 µg/mL (≈ 9.18 µM).

For `Cc1c(C(=O)N(C#N)Cc2ccccc2)ncn1Cc1ccccc1`, the result in test [1], in test [3], in test [4], in test [5] and in test [6] was inactive. The response in test [2] was half-maximal at 7.74 µg/mL (≈ 23.4 µM) (EC50).

As for `CC(C)(C)C(=O)C(Oc1ccc(Cl)cc1)n1cncn1` (stereo not drawn) [TRIADIMEFON], in test [2], a half-maximal effect (EC50) was put at 14.7 µg/mL (≈ 50 µM).

As to `CCCCN(C#N)C(=O)c1ncn(CCCC)c1C`, the result in test [1], in test [3], in test [4], in test [5] and in test [6] was inactive. In test [2], this molecule had an EC50 of 9.01 µg/mL (≈ 34.3 µM).

For `CCCCn1cnc(C(=O)N(C#N)Cc2ccccc2F)c1C`, the outcome in test [1], in test [3], in test [4], in test [5] and in test [6] was inactive. The molecule further gave an EC50 in test [2] of 13.3 µg/mL (≈ 42.2 µM).

Take `Cc1c(C(=O)N(C#N)Cc2ccc(F)cc2F)ncn1Cc1ccc(F)cc1`: the outcome in test [1], in test [3], in test [4], in test [5] and in test [6] was inactive. The midpoint of the response in test [2], the EC50, lay at 2.63 µg/mL (≈ 6.84 µM). For the same molecule, in test [7], the “Ratio EC50” value is given as 5.6.

As to `Cc1c(C(=O)N(C#N)Cc2ccccc2)ncn1Cc1ccc(F)cc1`, the result in test [1], in test [3], in test [4], in test [5] and in test [6] was inactive. The molecule also gave an EC50 in test [2] of 31.3 µg/mL (≈ 89.9 µM).

With `COC(=O)c1ccccc1CN(C#N)C(=O)c1ncn(Cc2ccc(F)cc2)c1C`, the outcome in test [1], in test [3], in test [4], in test [5] and in test [6] was inactive. In test [2], the EC50 stood at 13.3 µg/mL (≈ 32.6 µM).

As for `Cc1c(C(=O)N(C#N)Cc2ccccc2F)ncn1Cc1cccc([N+](=O)[O-])c1`, the result in test [1], in test [3], in test [4], in test [5] and in test [6] was inactive. The EC50 in test [2] is 6.67 µg/mL (≈ 17 µM).

With `Cc1ccc(Cn2cnc(C(=O)N(C#N)Cc3ccccc3)c2C)cc1`, the result in test [1], in test [3], in test [4], in test [5] and in test [6] was inactive. In test [2], this molecule returned an EC50 of 3.04 µg/mL (≈ 8.83 µM).

As to `Cc1ccc(Cn2cnc(C(=O)N(C#N)Cc3ccc(F)cc3)c2C)cc1`, the outcome in test [1], in test [3], in test [4], in test [5] and in test [6] was inactive. In addition, in test [2], a half-maximal effect (EC50) was put at 3.04 µg/mL (≈ 8.39 µM).

Consider `Cc1c(C(=O)N(C#N)Cc2ccc(F)cc2)ncn1Cc1ccc(F)cc1`, for which the result in test [1], in test [3], in test [4], in test [5] and in test [6] was inactive. The EC50 in test [2] came to 20.8 µg/mL (≈ 56.8 µM).

With `Cc1ccc(Cn2cnc(C(=O)N(C#N)Cc3ccccc3Cl)c2C)cc1`, the result in test [1], in test [3], in test [4], in test [5] and in test [6] was inactive. In addition, a half-maximal effect in test [2] (EC50) was put at 3.53 µg/mL (≈ 9.32 µM).

For `Cc1ccc(Cn2cnc(C(=O)N(C#N)CCCc3ccccc3)c2C)cc1`, the result in test [1], in test [3], in test [4], in test [5] and in test [6] was inactive. The same molecule yielded an EC50 in test [2] of 4.64 µg/mL (≈ 12.5 µM).

As to `Cc1ccc(Cn2cnc(C(=O)N(C#N)Cc3ccccc3F)c2C)cc1`, the result in test [1], in test [3], in test [4], in test [5] and in test [6] was inactive. In test [2], this molecule returned an EC50 of 8.76 µg/mL (≈ 24.2 µM).
